The subject of experiment [1] is IL-1β release from primary human astrocytes. Nature of the experiment: LPS-induced cytokine release from primary human astrocytes, IL-1β. The experiment is classed as cell-based. As for the experimental part: (§1) The following study was undertaken to investigate whether contemplated compounds and (+)NLX affect LPS-induced release of the pro-inflammatory cytokine (IL-1β, IL-6 and TNF-α) release from primary human astrocytes. […]
(§2) Primary astrocytes culture was prepared according to the provider's instructions (Lonza). The adherent astrocytes were trypsinized by 0.25% trypsin-EDTA, then collected and sub-cultured in 12-well plate (1.2 ml/well). […] Vehicle groups were pretreated with 0.1% DMSO only. Following addition of LPS, incubation continued for 24 hours. Culture medium was used as the blank and the levels of cytokines, TNF-α, IL-6 and IL-1β in 200 μl of culture medium were determined. Each well was sampled twice.
(§3) Plates were washed 3 times with ice-cold 50 mM Tris HCl (pH 7.4) and incubated at 30° C. with 200 μl medium derived from the above mentioned conditions. Plates were washed 3 times with ice-cold 50 mM Tris HCl (pH 7.4) and incubated at 30° C. with 0.5 μg/well un-conjugated rabbit anti-anti-INF-α, -IL-6 and -IL-1β for 1 hour. After two 1 minute washes with 50 mM Tris HCl (pH 7.4), each well was incubated in 0.5 μg/well FITC-conjugated anti-rabbit IgG (human and mouse absorbed) for 1 hour at 30° C. Plates were washed twice with 200 μl ice-cold Tris HCl, pH 7.4 and the residual […] signals were determined by multimode plate reader, DTX880 (Beckman).

Experiment [2] is described as follows: Mouse hot-water tail-flick test. In kind it is in vivo. Conditions: orally administered. As for the experimental part: The mouse “tail flick” test was used to assay the relative antinociceptive activity of compositions containing a compound to be assayed. This assay was substantially that disclosed by Xie et al., 2005 J. Neurosci 25:409-416.
The mouse hot-water tail-flick test was performed by placing the distal third of the tail in a water bath maintained at 52° C. The latency until tail withdrawal from the bath was determined and compared among the treatments. A 10 second cutoff was used to avoid tissue damage. Data are converted to percentage of antinociception by the following formula: (response latency−baseline latency)/(cutoff−baseline latency)×100 to generate dose-response curves. […] Relative potency was determined as a ratio of the A50 values.
To assess tolerance to the antinociceptive effect, the compound was administered twice daily for 7 days at an A90 dose (dose that results in a 90% antinociceptive effect in the 52° C. warm-water tail-flick test), and the tail-flick test was performed daily after the a.m. dose. […] Assays were typically carried out separately using at least 32 and 56 mg/kg dosages, with some assays also separately carried out at 18 and 100 mg/kg.
In general terms: Hot-plate and tail-flick tests time the reaction to a heat stimulus.

For experiment [3], the system named is IL-6 release from primary human astrocytes. Nature of the experiment: LPS-induced cytokine release from primary human astrocytes, IL-6. The experiment is classed as cell-based. How it is done:
as §1, §2, §3

For experiment [4], the system named is TNF-α release from primary human astrocytes. Nature of the experiment: LPS-induced cytokine release from primary human astrocytes, TNF-α. In kind it is cell-based. As for the experimental part:
as §1, §2, §3

A further experiment concerns the target filamin A (Homo sapiens, UniProt P21333). Conditions: read-out: affinity of binding to filamin A; cited from earlier work.
In experiment [5] the target is Bn-VAKGL pentapeptide of filamin A (FLNA) (Homo sapiens, UniProt P21333). Nature of the experiment: FITC-NLX-based FLNA screening assay (FLNA peptide binding assay). Conditions: 10 nM FITC-NLX, read-out: Percent inhibition of FITC-NLX binding. As for the experimental part:
The final assay volume is 100 μl.
Compounds are tested in triplicate or quadruplicate.

A further experiment concerns the target T1, mu opiate receptor (MOR) (Rattus norvegicus, UniProt P33535).
T1 construct: from tissue; host or cells: striatal membrane preparation (rat striatum)
The experiment can be described thus: MOR agonist activity, [35S]GTPγS binding assay using striatal membranes. The experiment is classed as biochemical. Also on record: MOR agonist activity, [35S]GTPγS binding to Gαo: reference not given here. As for the experimental part:
To assess the mu opiate receptor (MOR) agonist activity of positive compounds from the FLNA screening, compounds were tested in a [^35S]GTPγS binding assay using striatal membranes.
Striatal tissue was homogenized in 10 volumes of ice cold 25 mM HEPES buffer, pH 7.4, which contained 1 mM EGTA, 100 mM sucrose, 50 μg/ml leupeptin, 0.04 mM PMSF, 2 μg/ml soybean trypsin inhibitor and 0.2% 2-mercaptoethanol. The homogenates were centrifuged at 800×g for 5 minutes and the supernatants were centrifuged at 49,000×g for 20 minutes. The resulting pellets were suspended in 10 volume of reaction buffer, which contained 25 mM HEPES, pH 7.5, 100 mM NaCl, 50 μg/ml leupeptin, 2 μg/ml soybean trypsin inhibitor, 0.04 mM PMSF and 0.02% […].
The resultant striatal membrane preparation (200 μg) was admixed and maintained (incubated) at 30° C. for 5 minutes in reaction buffer as above that additionally contained 1 mM MgCl2 and 0.5 nM [^35S]GTPγS (0.1 μCi/assay, PerkinElmer Life and Analytical Sciences) in a total volume of 250 μl and continued for 5 minutes in the absence or presence of 0.1-10 μM of an assayed compound of interest. The reaction was terminated by dilution with 750 μl of ice-cold reaction buffer that contained 20 mM MgCl2 and 1 mM EGTA and immediate centrifugation at 16,000×g for 5 minutes.
The resulting pellet was solubilized by sonicating for 10 seconds in 0.5 ml of immunoprecipitation buffer containing 0.5% digitonin, 0.2% sodium cholate and 0.5% NP-40. Normal rabbit serum (1 μl) was added to 1 ml of lysate and incubated at 25° C. for 30 minutes. Nonspecific immune complexes were removed by incubation with 25 μl of protein A/G-conjugated agarose beads at 25° C. for 30 minutes followed by centrifugation at 5,000×g at 4° C. for 5 minutes. The supernatant was divided and separately incubated at 25° C. for 30 minutes with antibodies raised against Gαo proteins (1:1,000 dilutions).
The immunocomplexes so formed were collected by incubation at 25° C. for 30 minutes with 40 μl of agarose-conjugated protein A/G beads and centrifugation at 5,000×g at 4° C. for 5 minutes. The pellet was washed and suspended in buffer containing 50 mM Tris-HCl, pH 8.0, and 1% NP-40. The radioactivity in the suspension was determined by liquid scintillation spectrometry. […] DAMGO (H-Tyr-D-Ala-Gly-N-MePhe-Gly-OH; 1 or 10 μM) was used as a positive control.
(In general: Binding of GTPγS marks nucleotide exchange on a G protein.)

Setting [6] is: 10 pM compound 2 hours prior to LPS (1 μg/ml) and continued 24 hours.
Where [7] appears, read: 1 nM compound 2 hours prior to LPS (1 μg/ml) and continued 24 hours.
The mark [8] stands for this setting: 100 nM compound 2 hours prior to LPS (1 μg/ml) and continued 24 hours.
Setting [9] is: 100 fM compound 2 hours prior to LPS (1 μg/ml) and continued 24 hours.

T1 sequence (P33535 whole entry): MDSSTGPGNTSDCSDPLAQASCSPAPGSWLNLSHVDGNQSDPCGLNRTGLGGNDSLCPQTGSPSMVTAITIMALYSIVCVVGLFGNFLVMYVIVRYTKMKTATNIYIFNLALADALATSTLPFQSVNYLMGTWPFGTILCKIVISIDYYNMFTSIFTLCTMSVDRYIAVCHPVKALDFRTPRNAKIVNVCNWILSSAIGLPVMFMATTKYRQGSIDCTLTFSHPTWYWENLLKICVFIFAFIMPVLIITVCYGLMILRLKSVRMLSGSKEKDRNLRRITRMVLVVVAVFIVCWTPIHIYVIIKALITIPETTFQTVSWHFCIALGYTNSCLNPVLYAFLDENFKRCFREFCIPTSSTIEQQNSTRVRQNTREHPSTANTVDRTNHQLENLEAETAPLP
Sequence of filamin A (P21333 whole entry): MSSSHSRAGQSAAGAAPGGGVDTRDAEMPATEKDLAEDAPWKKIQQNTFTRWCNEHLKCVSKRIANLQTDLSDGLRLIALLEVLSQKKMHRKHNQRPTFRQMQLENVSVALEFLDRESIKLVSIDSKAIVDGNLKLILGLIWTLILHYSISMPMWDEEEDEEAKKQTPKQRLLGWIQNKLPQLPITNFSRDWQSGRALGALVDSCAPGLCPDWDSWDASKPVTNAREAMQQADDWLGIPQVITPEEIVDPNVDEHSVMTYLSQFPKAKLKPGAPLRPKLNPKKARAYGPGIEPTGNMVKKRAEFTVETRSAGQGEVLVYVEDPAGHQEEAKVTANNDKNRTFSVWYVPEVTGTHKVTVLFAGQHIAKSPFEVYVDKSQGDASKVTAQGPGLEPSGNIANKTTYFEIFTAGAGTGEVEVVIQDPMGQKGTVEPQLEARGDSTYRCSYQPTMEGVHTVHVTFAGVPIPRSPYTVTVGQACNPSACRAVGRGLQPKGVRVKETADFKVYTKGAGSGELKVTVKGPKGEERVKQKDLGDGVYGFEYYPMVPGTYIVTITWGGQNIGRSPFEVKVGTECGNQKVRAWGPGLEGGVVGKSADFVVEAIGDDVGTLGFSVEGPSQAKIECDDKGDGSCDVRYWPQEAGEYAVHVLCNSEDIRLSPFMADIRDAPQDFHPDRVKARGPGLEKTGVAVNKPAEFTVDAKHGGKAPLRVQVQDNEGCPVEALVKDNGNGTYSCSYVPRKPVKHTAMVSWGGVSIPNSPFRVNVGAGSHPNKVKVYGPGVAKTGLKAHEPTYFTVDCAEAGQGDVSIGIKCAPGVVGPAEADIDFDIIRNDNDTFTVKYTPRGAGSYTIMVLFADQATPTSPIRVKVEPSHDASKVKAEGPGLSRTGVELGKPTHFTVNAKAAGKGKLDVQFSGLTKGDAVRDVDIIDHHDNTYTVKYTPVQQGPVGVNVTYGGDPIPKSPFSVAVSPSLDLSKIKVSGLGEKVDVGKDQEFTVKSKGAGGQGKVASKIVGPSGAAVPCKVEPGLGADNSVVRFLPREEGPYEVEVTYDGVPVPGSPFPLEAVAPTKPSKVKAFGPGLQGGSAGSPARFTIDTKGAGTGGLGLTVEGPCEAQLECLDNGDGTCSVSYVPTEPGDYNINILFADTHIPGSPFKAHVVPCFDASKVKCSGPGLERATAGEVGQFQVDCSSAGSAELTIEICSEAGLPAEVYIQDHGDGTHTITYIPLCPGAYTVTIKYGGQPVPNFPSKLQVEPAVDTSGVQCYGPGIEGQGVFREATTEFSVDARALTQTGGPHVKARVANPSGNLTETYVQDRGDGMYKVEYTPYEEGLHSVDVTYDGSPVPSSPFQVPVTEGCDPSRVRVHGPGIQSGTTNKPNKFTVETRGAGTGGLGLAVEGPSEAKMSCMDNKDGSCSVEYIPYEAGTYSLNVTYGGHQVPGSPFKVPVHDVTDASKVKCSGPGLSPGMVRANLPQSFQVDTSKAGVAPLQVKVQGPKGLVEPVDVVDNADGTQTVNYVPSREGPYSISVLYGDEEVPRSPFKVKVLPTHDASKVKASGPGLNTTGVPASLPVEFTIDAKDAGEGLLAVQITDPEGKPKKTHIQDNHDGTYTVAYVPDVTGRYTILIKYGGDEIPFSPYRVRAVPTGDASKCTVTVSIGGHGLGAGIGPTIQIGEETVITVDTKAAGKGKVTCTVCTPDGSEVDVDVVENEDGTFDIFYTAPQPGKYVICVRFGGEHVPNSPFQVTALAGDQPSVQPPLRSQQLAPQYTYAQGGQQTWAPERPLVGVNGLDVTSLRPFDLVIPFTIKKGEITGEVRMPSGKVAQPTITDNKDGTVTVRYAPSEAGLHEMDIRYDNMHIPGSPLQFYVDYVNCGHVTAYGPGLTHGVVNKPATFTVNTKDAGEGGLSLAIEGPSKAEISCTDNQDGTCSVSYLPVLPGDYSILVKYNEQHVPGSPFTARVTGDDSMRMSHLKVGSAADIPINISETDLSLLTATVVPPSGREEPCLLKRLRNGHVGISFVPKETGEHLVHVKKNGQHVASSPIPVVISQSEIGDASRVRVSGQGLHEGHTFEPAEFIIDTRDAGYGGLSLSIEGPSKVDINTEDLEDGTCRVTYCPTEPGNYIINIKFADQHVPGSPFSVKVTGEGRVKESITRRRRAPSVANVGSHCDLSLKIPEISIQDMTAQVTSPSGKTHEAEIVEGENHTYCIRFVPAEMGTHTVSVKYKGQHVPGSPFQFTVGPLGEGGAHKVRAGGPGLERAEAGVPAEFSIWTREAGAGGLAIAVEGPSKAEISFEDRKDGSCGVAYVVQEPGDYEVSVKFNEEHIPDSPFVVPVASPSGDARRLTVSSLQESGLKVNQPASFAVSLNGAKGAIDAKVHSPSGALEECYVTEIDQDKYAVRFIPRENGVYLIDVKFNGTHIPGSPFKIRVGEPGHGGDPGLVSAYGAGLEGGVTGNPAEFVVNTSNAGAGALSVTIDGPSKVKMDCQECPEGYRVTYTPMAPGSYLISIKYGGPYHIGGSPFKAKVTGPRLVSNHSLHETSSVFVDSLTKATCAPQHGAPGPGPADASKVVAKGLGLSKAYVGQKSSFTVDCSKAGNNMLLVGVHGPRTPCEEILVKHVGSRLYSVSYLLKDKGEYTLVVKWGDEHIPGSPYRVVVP

For `O=S(=O)(c1ccc(F)cc1)N1CCOC12CCN(CC1CC1)CC2` [F-C0134], the “IL-1β Average % (±SEM)” value is listed as 78.0 (5.5) % in experiment [1] (setting [6]), 77.7 (2.9) % in experiment [1] (setting [7]), 73.2 (3.9) % in experiment [1] (setting [8]) and 73.3 (5.3) % in experiment [1] (setting [9]). Further, in experiment [2] (56 mg/kg), the “Maximum Antinociception (%)” value was 93%. Further, the “Time to Max.” value in experiment [2] (56 mg/kg) worked out at 20 min. Besides, the “IL-6 Average % (±SEM)” value was 78.8 (1.5) % in experiment [3] (setting [6]), 78.2 (1.8) % in experiment [3] (setting [7]), 76.3 (2.8) % in experiment [3] (setting [8]) and 81.3 (2.4) % in experiment [3] (setting [9]). In addition, the “TNF-α Average % (±SEM)” value in experiment [4] (setting [6]) is on record as 75.7 (1.8) %; in experiment [4] (setting [7]), 77.4 (4.2) %; in experiment [4] (setting [8]), 75.4 (1.6) %; in experiment [4] (setting [9]), 77.0 (2.8) %.
For orientation: inhibition means how much of the control response was suppressed. With `C=CCN1CC[C@]23c4c5ccc(O)c4O[C@H]2C(=O)CC[C@@]3(O)[C@H]1C5` [NLX, naloxone, reference compound], the Kd on filamin A is around 4 pM. The inhibition at 0.01 µM in experiment [5] (0.01 μM compound) was determined as 40.6%. Further, in experiment [5] (0.1 μM compound), the inhibition at 0.1 µM worked out at 47.8%. Besides, the inhibition at 1 µM in experiment [5] (1 μM compound) came out at 51.5%.
Consider `COc1ccc(S(=O)(=O)N2CCSC23CCNCC3)cc1` [S-C0027], for which the “IL-1β Average % (±SEM)” value was 85.8 (1.3) % in experiment [1] (setting [6]), 81.9 (2.3) % in experiment [1] (setting [7]), 79.5 (2.4) % in experiment [1] (setting [8]) and 86.8 (2.0) % in experiment [1] (setting [9]). The entries for the “Maximum Antinociception (%)” value in experiment [2] (56 mg/kg) and in experiment [2] (100 mg/kg) were 70% and 90%, respectively. Further, the “Time to Max.” value in experiment [2] (56 mg/kg) and in experiment [2] (100 mg/kg) was 30 min each time. The “IL-6 Average % (±SEM)” value in experiment [3] (setting [6]) was 75.6 (1.5) %; in experiment [3] (setting [7]) it was 77.4 (4.2) %; in experiment [3] (setting [8]), 83.1 (2.1) %; in experiment [3] (setting [9]), 81.0 (1.7) %. Besides, the “MOR agonist activity, [35S]GTPγS binding to Gαo” value on mu opiate receptor (MOR) (0.1 μM compound, striatal membranes) was found to be 156.2%; on mu opiate receptor (MOR) (1 μM compound + BFNA (1 μM β-funaltrexamine)), 56.2%; on mu opiate receptor (MOR) (1 μM compound, striatal membranes) it was 286.8%. The “TNF-α Average % (±SEM)” value in experiment [4] (setting [6]) is 73.6 (3.8) %; in experiment [4] (setting [7]), 72.7 (0.7) %; in experiment [4] (setting [8]), 74.0 (1.7) %; in experiment [4] (setting [9]) it was 77.7 (2.7) %.

These data come from US8614324B2, “Filamin A binding anti-inflammatory and analgesic” (priority 2008, dated 2013).
